We go through 14 compounds from PubChem BioAssay (NCI).

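Cells were grown in 96-well plates and exposed to each compound for 48 hours at five concentrations; endpoints were interpolated linearly between bracketing concentrations, or set to the highest concentration if not reached. Abbreviation: GI50, concentration required for 50% inhibition of growth. Definition used: TGI = concentration required for complete inhibition of growth.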

Some test systems named below: HCT-116 colon; COLO 205 colon; NCI-H522 lung; SK-OV-3 ovarian; SW-620 colon; HL-60(TB) leukemia; MDA-MB-435; DU-145 prostate; HS 578T breast; TK-10 renal.
Holding throughout (experiment): inhibition of tumour cell growth, NCI panel, 48 h

Take `CCN(CC)CCCNc1ncc(C)c2[nH]c3ccncc3c12`: the TGI in the assay on HCT-116 colon is 30.3 µM; in the assay with COLO 205 colon, 22.6 µM; in the assay with NCI-H522 lung, 22.8 µM; with SK-OV-3 ovarian, 15.9 µM; in the assay on SW-620 colon it was 36.9 µM; in the assay on HL-60(TB) leukemia it was above 31.6 µM.

For the compound `Nc1nc(Cl)cc(OCC2(CO)CC(OCc3ccccc3)C2)n1` (stereo not drawn), the GI50 in the assay on HCT-116 colon is 64 µM; in the assay with MDA-MB-435, 69.4 µM; in the assay on DU-145 prostate it was 66.3 µM; with COLO 205 colon, 72.5 µM; in the assay on NCI-H522 lung, 47.2 µM; in the assay with SK-OV-3 ovarian, 61.2 µM. The GI50 was 40 µM with HL-60(TB) leukemia and 34 µM in the assay on HS 578T breast.

Regarding `COc1cc(/C=C/c2cc(/C=C/c3ccc(O)c(OC)c3)nc(N)n2)ccc1O`, the GI50 is 1.1 µM with HCT-116 colon; 3.39 µM with TK-10 renal; 2.4 µM in the assay with DU-145 prostate; 1.8 µM in the assay on COLO 205 colon; 1.24 µM in the assay on NCI-H522 lung; 2.6 µM with SK-OV-3 ovarian. The GI50 with HL-60(TB) leukemia was 2.18 µM; with HS 578T breast, 0.524 µM. For the same compound, the TGI amounted to 2.39 µM in the assay with HCT-116 colon; 9.54 µM with TK-10 renal; 6.31 µM in the assay with DU-145 prostate; 3.24 µM in the assay on COLO 205 colon; 2.79 µM in the assay with NCI-H522 lung; 8.23 µM with SK-OV-3 ovarian. Further, the TGI in the assay on HL-60(TB) leukemia was found to be 6.17 µM; in the assay with HS 578T breast, 2.99 µM.

On to `O=[N+]([O-])c1ccccc1NC1c2ccccc2Oc2ccccc21`, for which the GI50 with HCT-116 colon is 4.08 µM; in the assay on TK-10 renal, 29.1 µM; in the assay with MDA-MB-435 it was 2.5 µM; with DU-145 prostate, 43 µM; with COLO 205 colon it was 3.59 µM; in the assay on NCI-H522 lung it was 3.84 µM. The GI50 was 3.55 µM in the assay with SW-620 colon, 2.8 µM in the assay on HL-60(TB) leukemia and 8.35 µM in the assay on HS 578T breast. For the same compound, the TGI with HCT-116 colon is above 100 µM; with TK-10 renal, above 100 µM; in the assay on MDA-MB-435, 6.64 µM; with DU-145 prostate, above 100 µM; in the assay on COLO 205 colon, above 100 µM; in the assay with NCI-H522 lung it was above 100 µM. Moreover, the TGI was above 100 µM in the assay with SW-620 colon, 7.09 µM with HL-60(TB) leukemia and above 100 µM in the assay with HS 578T breast.

For `COC(=O)c1cccc(N[C@@H]2c3cc4c(cc3C(c3cc(OC)c(O)c(OC)c3)[C@H]3C(=O)OCC32)OCO4)c1` (stereo partly drawn), the TGI in the assay with HCT-116 colon is 21.9 µM; in the assay with COLO 205 colon, 5.5 µM; with NCI-H522 lung, 8.75 µM; in the assay with SK-OV-3 ovarian, 23.6 µM; with SW-620 colon it was above 100 µM; with HL-60(TB) leukemia, 1.1 µM.

Turning to `N=c1c2c(=S)n(-c3ccccc3)c(=S)n(-c3ccccc3)c2nc(SCCCN2CCN(c3cccc(Cl)c3)CC2)n1-c1ccccc1`, the TGI in the assay with TK-10 renal, with MDA-MB-435, with DU-145 prostate, with COLO 205 colon, with NCI-H522 lung and with SK-OV-3 ovarian was above 100 µM in each case. Further, the TGI in the assay on SW-620 colon, in the assay on HL-60(TB) leukemia and in the assay on HS 578T breast was above 100 µM each time.

`O=C(O)CNc1ccc(C(=O)O)cc1`: the TGI in the assay on HCT-116 colon, in the assay on TK-10 renal, with MDA-MB-435, in the assay on DU-145 prostate, in the assay on COLO 205 colon and with NCI-H522 lung was above 100 µM each time. The TGI in the assay with SK-OV-3 ovarian, in the assay on SW-620 colon, with HL-60(TB) leukemia and with HS 578T breast was above 100 µM throughout.

Regarding `Cc1ccc([N+](=O)[O-])cc1S(=O)(=O)Nc1ccc(C2=NNC(c3ccccc3O)C2)cc1` (stereo not drawn), the TGI is 60.8 µM in the assay on HCT-116 colon; above 100 µM in the assay on TK-10 renal; 50.6 µM in the assay with MDA-MB-435; above 100 µM in the assay with DU-145 prostate; 65.5 µM in the assay on COLO 205 colon; above 100 µM with NCI-H522 lung. Further, the TGI in the assay on SK-OV-3 ovarian is above 100 µM; with SW-620 colon, above 100 µM; in the assay on HL-60(TB) leukemia, 61.8 µM; in the assay on HS 578T breast, above 100 µM.

Consider `CCCCCCCC/C=C\CCCCCCCC(=O)O`, for which the TGI with HCT-116 colon was 217 µM; with COLO 205 colon it was above 500 µM; in the assay with NCI-H522 lung, 210 µM; in the assay on SK-OV-3 ovarian it was above 500 µM; in the assay on SW-620 colon, 355 µM; in the assay on HL-60(TB) leukemia it was 290 µM.

Consider `CCNc1nnc(-c2nsc3ccccc23)s1`, for which the TGI in the assay on HCT-116 colon was 75.2 µM; in the assay with TK-10 renal, above 100 µM; with COLO 205 colon it was above 100 µM; with SW-620 colon, above 100 µM; with HL-60(TB) leukemia, above 100 µM.

As to `CC(=O)Oc1ccc2c(c1)oc1c3ccc(OC(C)=O)cc3n(C)c(=O)c21`, the TGI in the assay with HCT-116 colon is 48.7 µM; in the assay with TK-10 renal, above 100 µM; with MDA-MB-435, above 100 µM; in the assay with DU-145 prostate, above 100 µM; in the assay on COLO 205 colon, above 100 µM; in the assay with SK-OV-3 ovarian, above 100 µM. Moreover, the TGI with SW-620 colon and in the assay with HS 578T breast was above 100 µM in each case.

As for `O=C1C=CC2=[N+]([O-])C(c3ccccc3)(c3ccccc3)C(=Nc3ccccc3)C2=C1`, the TGI with HCT-116 colon came out at 3.92 µM; with TK-10 renal it was 3.27 µM; in the assay on NCI-H522 lung, 3.02 µM; in the assay on SK-OV-3 ovarian it was 31.8 µM; in the assay with SW-620 colon, 3.65 µM.

`Cc1cc(C)c2c(c1)CC1(Cc3c(C)ccc(C)c3C1=O)C2=O` (stereo not drawn): the TGI in the assay with TK-10 renal, in the assay on MDA-MB-435, with DU-145 prostate, in the assay on COLO 205 colon, in the assay with NCI-H522 lung and in the assay with SW-620 colon was above 100 µM each time. Besides, the TGI in the assay on HL-60(TB) leukemia and in the assay with HS 578T breast was above 100 µM in each case.

In the case of `N=C(N)c1ccc(-c2ccc(-c3ccccc3)s2)cc1`, the GI50 in the assay with MDA-MB-435 is 1.66 µM; with DU-145 prostate, 1.75 µM; in the assay on SK-OV-3 ovarian, 2.42 µM; in the assay with HS 578T breast, 1.94 µM. For the same compound, the TGI in the assay on MDA-MB-435 worked out at 3.03 µM; with DU-145 prostate it was 3.17 µM; with SK-OV-3 ovarian, 7.27 µM; with HS 578T breast, 5.04 µM.
